Assay results: patent US20260158136A1, “MEDICAMENT FOR TREATMENT AND/OR PREVENTION OF CANCER” (TORAY INDUSTRIES, INC., priority 2022, published 2026)

Columns and labels:
Format in all cases: cell-based
[1] = system: human colon cancer cell line (HCT116); assay: THP-1-mediated phagocytic activity against HCT116, anti-CAPRIN-1 antibody with palbociclib or abemaciclib, control IgG included (Example 2B); conditions: Dunnett's test, p<0.001; anti-CAPRIN-1 antibody treatment group; FIG. 2
Protocol: (§1) Specifically, in CDK inhibitor combination test group, the indicated drug used in combination was applied to human cancer cells, and then the cancer cells were cocultured with human monocytic cells (THP-1) in the presence of the anti-CAPRIN-1 antibody, and the antibody-mediated phagocytic activity against the cancer cells by THP-1 was evaluated. A human IgG antibody (Sigma-Aldrich Co. LLC, Cat. No.: 4506) was used as a control antibody.
(§2) The human-derived cancer cell used was a colon cancer cell line HCT116. On a 6-well plate, the human-derived cancer cells were cultured for 2 days in the presence of the palbociclib (10 M) or abemaciclib (1 μM), for the CDK inhibitor combination test group. As a control, a test group without a drug used in combination, in which only the anti-CAPRIN-1 antibody was added, was established. […]
(§3) Each cancer cell line after the culture was dissociated with TrypLE Express (Thermo), and the cancer cells were stained by the addition of calcein-AM at a final concentration of 0.04 μg/mL and incubation at 37° C. for 10 minutes. […] Further, dead cells were stained with propidium iodide (PI) (final concentration: 0.1 μg/mL), followed by the measurement of fluorescence from the cells by flow cytometry. […] Thus, the phagocytic activity in this evaluation system was calculated as the ratio (%) of APC-positive/calcein-AM-positive cells to the whole calcein-AM-positive population.

[2] = system: human colon cancer cell line (HCT116); assay: THP-1-mediated phagocytic activity against HCT116, anti-CAPRIN-1 antibody with palbociclib or abemaciclib (Example 2A); conditions: Student's t test, p<0.001; with anti-CAPRIN-1 antibody; FIG. 1
Protocol: as §1, with “evaluated.” for “evaluated. A human IgG antibody (Sigma-Aldrich Co. LLC, Cat. No.: 4506) was used as a control antibody.”
as §2, with “of” for “of the”, “μM)” for “M)”, “μM)” for “μM),”
as §3

[3] = system: human colon cancer cell line (HCT116); assay: THP-1-mediated phagocytic activity against HCT116, anti-CAPRIN-1 antibody with palbociclib or cisplatin (Example 5); conditions: for phagocytic activity of combination test group compared with test group without a drug used in combination: Dunnett's test, with anti-CAPRIN-1 antibody, FIG. 5; for phagocytic activity against cancer cells: drug combination test group: HCT116 cultured 2 days with palbociclib 10 μM or cisplatin 1 μM, then anti-CAPRIN-1 humanized antibody #1 1 μg/mL + THP-1, 1 h
Protocol: as §1, with “each” for “CDK”, “evaluated.” for “evaluated. A human IgG antibody (Sigma-Aldrich Co. LLC, Cat. No.: 4506) was used as a control antibody.”
The human-derived cancer cell used was a colon cancer cell line HCT116. On a 6-well plate, the human-derived cancer cells were cultured for 2 days in the presence of the respective drugs used in combination, for the palbociclib combination test group. Specifically, palbociclib was added at a concentration of 10 μM and cisplatin at a concentration of 1 μM to HCT 116. As a control, a test group without a drug used in combination, in which only the anti-CAPRIN-1 antibody was added, was established. In the control group, the cancer cells were cultured for 2 days without addition of the drug used in combination beforehand.
(§4) Each cancer cell line after the culture was dissociated with TrypLE Express (Thermo), and the cancer cells were stained by the addition of calcein-AM at a final concentration of 0.04 μg/mL and incubation at 37° C. for 10 minutes. Next, the cells were dispensed at 1×10^4 cancer cells per well to a 96-well plate, and the anti-CAPRIN-1 antibody at a final concentration of 1 μg/mL and 10×10^5 THP-1 cells were added to each well, followed by culture at 37° C. for 1 hour under a condition of 5% CO2. Then, the cells were washed with PBS (phosphate buffer solution) containing 1% FBS (fetal bovine serum), and the human monocytic cells were stained through a reaction with an APC (allophycocyanin)-labeled anti-human CD45 antibody (final concentration: 0.25 μg/mL). Further, dead cells were stained with propidium iodide (PI) (final concentration: 0.1 μg/mL), followed by the measurement of fluorescence from the cells by flow cytometry. PI-positive dead cells were excluded from analysis. The human monocytic cells THP-1 recognize an antibody bound onto cancer cells and phagocytize the cancer cells. At that time, if the cancer cells have been stained with calcein-AM, the monocytic cells ingesting the cancer cells by phagocytosis also become positive to calcein-AM. Thus, the phagocytic activity in this evaluation system was calculated as the ratio (%) of APC-positive/calcein-AM-positive cells to the whole calcein-AM-positive population.

[4] = system: human colon cancer cell line (HCT116); assay: THP-1-mediated phagocytic activity against HCT116, anti-CAPRIN-1 antibody with ribociclib (Example 3)
Protocol: as §1, with “ribociclib” for “drug used in combination”, “evaluated.” for “evaluated. A human IgG antibody (Sigma-Aldrich Co. LLC, Cat. No.: 4506) was used as a control antibody.”
The human-derived cancer cell used was a colon cancer cell line HCT116. On a 6-well plate, the human-derived cancer cells were cultured for 2 days in the presence of the ribociclib (30 μM), for the CDK inhibitor combination test group. As a control, a test group without a drug used in combination, in which only the anti-CAPRIN-1 antibody was added, was established. In the control group, the cancer cells were cultured for 2 days without addition of the drug used in combination beforehand.
as §4, with “5×10^3” for “1×10^4”, “1.25×10^5” for “10×10^5”, “At that time, if the cancer cells have been stained with calcein-AM, the monocytic cells ingesting the cancer cells by phagocytosis also become positive to calcein-AM.” left out

[5] = system: human colon cancer cell line (HCT116); assay: THP-1-mediated phagocytic activity against HCT116, anti-CAPRIN-1, anti-CD20 or anti-HER-2 antibody alone or with palbociclib (Example 4)
Protocol: The human-derived cancer cell used was a colon cancer cell line HCT116. On a 6-well plate, the human-derived cancer cells were cultured for 2 days in the presence of the respective drugs used in combination for the palbociclib combination test group. Specifically, palbociclib was added at a concentration of 10 μM to HCT 116. […] In the control group, the cancer cells were cultured for 2 days without addition of palbociclib beforehand.
as §4, with “Next, the cells were dispensed at 1×10^4 cancer cells per well to a 96-well plate, and the anti-CAPRIN-1 antibody at a final concentration of 1 μg/mL and 10×10^5 THP-1 cells were added to each well, followed by culture at 37° C. for 1 hour under a condition of 5% CO2.” left out, “[…]).” for “μg/mL).”

Row | Compound | phagocytic activity of combination test group compared with test group without a drug used in combination [1] | phagocytic activity of combination test group compared with test group without a drug used in combination [2] | phagocytic activity of combination test group compared with test group without a drug used in combination [3] | phagocytic activity against cancer cells [3] | other results
1 | CCN1CCN(Cc2ccc(Nc3ncc(F)c(-c4cc(F)c5nc(C)n(C(C)C)c5c4)n3)nc2)CC1 [abemaciclib, N-[5-[(4-ethylpiperazin-1-yl)methyl]pyridin-2-yl]-5-fluoro-4-(7-fluoro-2-methyl-3-propan-2-ylbenzimidazol-5-yl)pyrimidin-2-amine] | significantly higher | significantly higher | – | – | –
2 | N.N.[Cl][Pt][Cl] [cisplatin] | – | – | no significant change | ≤ 23% | –
3 | CC(=O)c1c(C)c2cnc(Nc3ccc(N4CCNCC4)cn3)nc2n(C2CCCC2)c1=O [palbociclib, 6-acetyl-8-cyclopentyl-5-methyl-2-[(5-piperazin-1-ylpyridin-2-yl)amino]pyrido[2,3-d]pyrimidin-7-one] | significantly higher | significantly higher | significantly higher | ≥ 54% | –
4 | CN(C)C(=O)c1cc2cnc(Nc3ccc(N4CCNCC4)cn3)nc2n1C1CCCC1 [ribociclib, 7-cyclopentyl-N,N-dimethyl-2-[(5-piperazin-1-ylpyridin-2-yl)amino]pyrrolo[2,3-d]pyrimidine-6-carboxamide] | – | – | – | – | phagocytic activity of combination test group compared with test group without a drug used in combination ([4]; Dunnett's test, p<0.001, with anti-CAPRIN-1 antibody, FIG. 3): significantly higher; increase of antitumor effect of the anti-CAPRIN-1 antibody by the combination ([4]; combination versus antibody alone, HCT116): ≥ 2.5 times; phagocytic activity against cancer cells ([4]; ribociclib combination test group: HCT116 cultured 2 days with ribociclib 30 μM, then anti-CAPRIN-1 humanized antibody #1 1 μg/mL + THP-1, 1 h): ≥ 58%
5 | anti-CD20 antibody: anti-CD20 antibody ("Rituxan") purchased from Chugai Pharmaceutical Co., Ltd. | – | – | – | – | effect of palbociclib combination on phagocytic activity compared with antibody without a drug used in combination ([5]; palbociclib 10 μM, Dunnett's test, FIG. 4): not remarkably increased; phagocytic activity against cancer cells ([5]; palbociclib combination test group: HCT116 cultured 2 days with palbociclib 10 μM, then antibody at final concentration 1 μg/mL + THP-1, 1 h): ≤ 11%; phagocytic activity against cancer cells ([5]; test group without a drug used in combination: antibody only, 1 μg/mL + THP-1, 1 h): ≤ 7%
